Patent US8093231B2, “Sulfonylethyl phosphorodiamidates” (Telik, Inc., priority 2004, dated 2012)
Like-named read-outs stand apart in the source and are kept apart here.

Experiments:
Assay type in all cases: cell-based, human
MX-1 (breast carcinoma) = test: Cytotoxicity/growth inhibition assay, MX-1; conditions: read-out: IC50 (MX-1)
Text: (§1) The human cancer cell lines DLD-1 (colorectal adenocarcinoma), LNCap (prostate carcinoma), and OVCAR-3 (ovarian carcinoma) were obtained from the American Type Culture Collection, Manassas, Va., U.S.A., and HL-60 (promyeloid myelocytic leukemia), MX-1 (breast carcinoma), P388, and P388ADR from the National Cancer Institute, Bethesda, Md., U.S.A. Carboplatin, doxorubicin, and melphalan were obtained from Sigma-Aldrich Chemical Company, St. Louis, Mo., U.S.A. The CellTiter-Glo assay kit was obtained from Promega Corporation, Madison, Wis., U.S.A., and the Cellular DNA Cytometric Analysis Reagent Kit from Roche Diagnostics Corporation, Indianapolis, Ind., U.S.A. Lambda DNA was obtained from New England Biolabs, Beverly, Mass., U.S.A., and SYBR-Gold from Molecular Probes, Inc., Eugene, Oreg., U.S.A. The DNeasy Tissue Kit was obtained from Qiagen Inc., Valencia, Calif., U.S.A., and AmpliTaq Gold DNA polymerase and PCR reagents from Applied Biosystems, Foster City, Calif., U.S.A. All products were used in accordance with manufacturer's directions. All assays were conducted in triplicate wells, with dimethyl sulfoxide (DMSO) solvent control. The extent of cell growth was expressed as a percentage of the signal from the solvent control wells.
(§2) Log-phase cells were trypsinized, collected by centrifugation, and resuspended in a small volume of fresh medium, and the density of viable cells was determined following Trypan Blue staining. Cells were diluted in fresh media (3×10^3 cells/mL for MX-1, 3×10^3 cells/mL for DLD-1, and 6×10^3 cells/mL for LNCap cells), the test compounds (concentrations between 0.1 and 200 μM, dissolved in DMSO, 50 μL) added immediately after dilution to achieve a final DMSO concentration of 0.5%, then the suspensions added at 150 μL/well to 96-well plates, and incubated for several hours to allow attachment in the case of adherent cells. The cells were cultured for approximately three doubling times (3 days for MX-1 and 4 days for DLD-1 and LNCap). The cells were then collected by centrifugation, and 100 μL of the culture supernatant was replaced by the CellTiter-Glo reagent. After incubation for 15 minutes at room temperature, and the plate was read with a luminometer.

[1] = test system: DLD-1 (colorectal adenocarcinoma); test: Cytotoxicity/growth inhibition assay, DLD-1; conditions: read-out: IC50 (DLD-1)
Text: as §1, §2

[2] = test system: LNCap (prostate carcinoma); test: Cytotoxicity/growth inhibition assay, LNCap; conditions: read-out: IC50 (LNCap)
Text: as §1, §2

[3] = MX-1 cells, 3 days culture, CellTiter-Glo, 0.1-200 μM tested
[4] = DLD-1 cells, 4 days culture, CellTiter-Glo, 0.1-200 μM tested
[5] = LNCap cells, 4 days culture, CellTiter-Glo, 0.1-200 μM tested

Compound	IC50 (MX-1 (breast carcinoma); [3])	IC50 [1, 4]	IC50 [2, 5]	IC50 (MX-1 (breast carcinoma); Homo sapiens, MX1, 72 h)	IC50 ([1]; Homo sapiens, DLD-1, 96 h)	IC50 ([2]; Homo sapiens, LNCaP, 96 h)
CC(C)NC(=O)[C@H](CS(=O)(=O)CCOP(=O)(N(CCCl)CCCl)N(CCCl)CCCl)NS(=O)(=O)c1ccccc1 [Compound 92A]	14.7 µM	7.3 µM	36.1 µM			
O=P(OCCS(=O)(=O)c1ccncc1)(N(CCCl)CCCl)N(CCCl)CCCl [Compound 120A]	7.1 µM	3.6 µM	12.2 µM			
CN(CC(=O)O)C(=O)CS(=O)(=O)CCOP(=O)(N(CCCl)CCCl)N(CCCl)CCCl [Compound 34A]	9 µM	12 µM	97.2 µM			
CCC(C)CS(=O)(=O)CCOP(=O)(N(CCCl)CCCl)N(CCCl)CCCl (stereo not drawn) [Compound 8A]	17.5 µM	7 µM	40.9 µM			
CN(CCO)C(=O)c1ccc(CS(=O)(=O)CCOP(=O)(N(CCCl)CCCl)N(CCCl)CCCl)cc1 [Compound 158A]	35.4 µM	17.5 µM	85.2 µM			
NCC(=O)Nc1cc(CS(=O)(=O)CCOP(=O)(N(CCCl)CCCl)N(CCCl)CCCl)cc(CS(=O)(=O)CCOP(=O)(N(CCCl)CCCl)N(CCCl)CCCl)c1 [Compound 19B]	7.6 µM	3.8 µM	52 µM			
CC(C)NC(=O)[C@H](CS(=O)(=O)CCOP(=O)(N(CCCl)CCCl)N(CCCl)CCCl)NS(=O)(=O)c1ccc(C#N)cc1 [Compound 101A]	14.8 µM	7.2 µM	57 µM			
O=C(CS(=O)(=O)CCOP(=O)(N(CCCl)CCCl)N(CCCl)CCCl)Nc1ccc(C(=O)O)cc1 [Compound 33A]	20.6 µM	8.6 µM	98.6 µM			
CS(=O)(=O)N[C@@H](CS(=O)(=O)CCOP(=O)(N(CCCl)CCCl)N(CCCl)CCCl)C(=O)NCc1ccccc1 [Compound 95A]	21.3 µM	9.9 µM	46.6 µM			
O=P(OCCS(=O)(=O)CCOCCS(=O)(=O)CCOP(=O)(N(CCCl)CCCl)N(CCCl)CCCl)(N(CCCl)CCCl)N(CCCl)CCCl [Compound 8B]	10.9 µM	6.5 µM	28 µM			
N[C@@H](CS(=O)(=O)CCOP(=O)(N(CCCl)CCCl)N(CCCl)CCCl)C(=O)N1CCOCC1 [Compound 87A]	19.5 µM	9.7 µM	136 µM			
C=CS(=O)(=O)CCOP(=O)(N(CCCl)CCCl)N(CCCl)CCCl [Compound 2A]	3.2 µM	1.4 µM	105 µM			
Cc1ncc(CS(=O)(=O)CCOP(=O)(N(CCCl)CCCl)N(CCCl)CCCl)c(CO)c1O [Compound 183A]	18.4 µM	4.9 µM	42.1 µM			
O=C(O)CS(=O)(=O)CCOP(=O)(N(CCCl)CCCl)N(CCCl)CCCl [Compound 14A, 2-[[2-[[bis[bis(2-chloroethyl)amino]phosphinyl]oxy]-ethyl]sulfonyl]acetic acid]				62.2 µM	17.6 µM	≥ 200 µM
CN(CC(=O)OC(C)(C)C)C(=O)CS(=O)(=O)CCOP(=O)(N(CCCl)CCCl)N(CCCl)CCCl [Compound 28A]	9 µM	5.1 µM	35.2 µM			
O=C(CS(=O)(=O)CCOP(=O)(N(CCCl)CCCl)N(CCCl)CCCl)Nc1ccc([N+](=O)[O-])cc1 [Compound 20A]	4.3 µM	2.8 µM	3.6 µM			
O=C(O)CCC(=O)Nc1cccc(CS(=O)(=O)CCOP(=O)(N(CCCl)CCCl)N(CCCl)CCCl)c1 [Compound 142A]	22.5 µM	18.1 µM	114 µM			

Compound	IC50 (MX-1 (breast carcinoma); [3])	IC50 [1, 4]	IC50 [2, 5]	IC50 (MX-1 (breast carcinoma); Homo sapiens, MX1, 72 h)	IC50 ([1]; Homo sapiens, DLD-1, 96 h)	IC50 ([2]; Homo sapiens, LNCaP, 96 h)
O=C(CS(=O)(=O)CCOP(=O)(N(CCCl)CCCl)N(CCCl)CCCl)N1CCN(Cc2ccccc2)CC1 [Compound 19A]	14.8 µM	8.1 µM	17.8 µM			
O=P(OCCS(=O)(=O)c1ccccc1S(=O)(=O)CCOP(=O)(N(CCCl)CCCl)N(CCCl)CCCl)(N(CCCl)CCCl)N(CCCl)CCCl [Compound 10B]	10.8 µM	6.1 µM	1.9 µM			
O=C(c1ccc(CS(=O)(=O)CCOP(=O)(N(CCCl)CCCl)N(CCCl)CCCl)cc1)N1CCC(O)CC1 [Compound 166A]	20.5 µM	6.3 µM	90.2 µM			
N[C@@H](CCCNC(=O)CS(=O)(=O)CCOP(=O)(N(CCCl)CCCl)N(CCCl)CCCl)C(=O)O [Compound 32A]	41.2 µM	11.3 µM	177 µM			
O=P(OCCS(=O)(=O)Cc1ccc(Cl)c(Cl)c1)(N(CCCl)CCCl)N(CCCl)CCCl [Compound 134A]	1.5 µM	1.2 µM	4.8 µM			
CC(C)CS(=O)(=O)CCOP(=O)(N(CCCl)CCCl)N(CCCl)CCCl [Compound 6A]	4.6 µM	6.8 µM	17.7 µM			
CC(C)(C(N)C(=O)O)S(=O)(=O)CCOP(=O)(N(CCCl)CCCl)N(CCCl)CCCl (stereo not drawn) [Compound 75A]	33.1 µM	7.6 µM	185 µM			
O=P(OCCS(=O)(=O)Cc1ccc(CS(=O)(=O)CCOP(=O)(N(CCCl)CCCl)N(CCCl)CCCl)cc1)(N(CCCl)CCCl)N(CCCl)CCCl [Compound 15B]	1.4 µM	2.4 µM	4.4 µM			
O=C(Nc1cc(CS(=O)(=O)CCOP(=O)(N(CCCl)CCCl)N(CCCl)CCCl)cc(CS(=O)(=O)CCOP(=O)(N(CCCl)CCCl)N(CCCl)CCCl)c1)c1cccnc1 [Compound 22B]	7 µM	2.5 µM	40.8 µM			
Cc1cnc(S(=O)(=O)CCOP(=O)(N(CCCl)CCCl)N(CCCl)CCCl)nc1 [Compound 123A]	9 µM	5.9 µM	25.1 µM			
CC(C)(C)c1ccc(S(=O)(=O)CCOP(=O)(N(CCCl)CCCl)N(CCCl)CCCl)cc1 [Compound 114A]	4.7 µM	1.9 µM	8.2 µM			
O=C(NCCO)c1ccc(CS(=O)(=O)CCOP(=O)(N(CCCl)CCCl)N(CCCl)CCCl)cc1 [Compound 160A]	33.2 µM	13.9 µM	104 µM			
CC(C)CCS(=O)(=O)CCOP(=O)(N(CCCl)CCCl)N(CCCl)CCCl [Compound 9A]	5.8 µM	5.9 µM	17.3 µM			
O=P(OCCS(=O)(=O)CCOCCOCCS(=O)(=O)CCOP(=O)(N(CCCl)CCCl)N(CCCl)CCCl)(N(CCCl)CCCl)N(CCCl)CCCl [Compound 9B]	6 µM	6.1 µM	25.5 µM			
O=P(OCCS(=O)(=O)c1ccc(S(=O)(=O)CCOP(=O)(N(CCCl)CCCl)N(CCCl)CCCl)cc1)(N(CCCl)CCCl)N(CCCl)CCCl [Compound 12B]	4.3 µM	1.9 µM	7.1 µM			
CC(C)(C)OC(=O)CCNC(=O)CS(=O)(=O)CCOP(=O)(N(CCCl)CCCl)N(CCCl)CCCl [Compound 37A]	8 µM	8 µM	28.9 µM			
